According to PMC7395068, “The evolution of strategies to minimise the risk of human drug-induced liver injury (DILI) in drug discovery and development” (Archives of Toxicology, 2020):
Like-named read-outs stand apart in the source and are kept apart here.

Columns and labels:
human hepatocytes = details: cited from earlier work
[1] = cited from earlier work
HepG2 cells [2] = details: cited from earlier work
hu-MPCC = details: cited from earlier work
[3] = tested on: HepG2 C3A spheroid, BSEP, Glu/Gal in HepG2 cells, bioactivation; details: cited from earlier work
RMPCC's = details: cited from earlier work
[4] = tested on: THLE or HepG2 cells, isolated mitochondria, BSEP; details: cited from earlier work
HepG2 cells [5] = details: cited from earlier work; remark: listed apart in the source
[6] = cited from earlier work; remark: listed apart in the source
[7] = human, in vivo; cited from earlier work
HepaRG spheroids [8] = tested on: HepaRG spheroids
[9] = Plasma free fraction (fu) and unbound Cmax (Cmax,u); assay type: in vitro ADME, human; details: human
Description: The prediction of DILI severity was evaluated further using the 3D combined HCI assays using plasma-free fraction. The majority of fu values were obtained from literature, when unavailable in-house prediction was utilised. Unbound plasma Cmax concentrations (Cmax,u) were derived by multiplying total plasma Cmax with the corresponding free fraction (fu) for each compound.

hLiMTs [10] = details: cited from earlier work
hLiMTs [11] = tested on: hLiMTs
[12] = in vivo; cited from earlier work
PHH [13] = details: cited from earlier work
[14] = tested on: primary human hepatocytes, NIH3T3 fibroblasts, BSEP, CYP3A4; details: cited from earlier work
hLiMTs [15] = experiment: Combined HCI (HCS) and cellular ATP 3D assay in hLiMTs; details: Homo sapiens
HepaRG spheroids [16] = experiment: Combined HCI (HCS) and cellular ATP 3D assay in HepaRG spheroids; details: Homo sapiens, HepaRG
[17] = tested on: isolated mouse liver mitochondria; details: In vitro Assay; ref Porceddu 2012; cited from earlier work
HepG2 cells [18] = details: In vitro Assay; ref Persson 2013; cited from earlier work
PHH spheroids = details: In vitro Assay; ref Vorrink 2018; cited from earlier work
HepG2 = tested on: HepG2; parameters: method as in Albrecht 2019; details: In vitro Assay; ref Albrecht 2019; cited from earlier work
PHH [19] = details: In vitro Assay; ref Albrecht 2019; cited from earlier work
[20] = In vitro Assay, ref Proctor 2017
[21] = In vitro Assay, ref O'Brien 2006
[22] = In vitro Assay, ref Khetani 2012

SMILES: C[C@H](CS)C(=O)N1CCC[C@H]1C(=O)O [captopril]
- Structural based (HCI) (human hepatocytes): -VE
- In vivo DILI ([1]; in vivo): +VE
- Structural based (HCI) (HepG2 cells [2]): +VE
- HMPCC's (hu-MPCC): -VE
- Bayesian Machine Learning [3]: +VE
- RMPCC's (RMPCC's): -VE
- Ro2 Hybrid HRM Score [4]: -VE
- Structural based (HCI) (HepG2 cells [5]): +VE
- DILI +VE (5-8), DILI -VE (-4) ([6]; in vivo): +VE
- DILI severity category ([6]; in vivo): vLess-DILI-Concern

SMILES: O=P1(N(CCCl)CCCl)NCCCO1 (stereo not shown) [cyclophosphamide, reference compound]
- DILI in vitro assay prediction, Xu (2008) (human hepatocytes): -VE
- Structural based (HCI) (human hepatocytes): -VE
- Cmax [7]: 143 µM
- Assigned DILI category ([1]; in vivo): 2
- DILI prediction HepaRG spheroids (HCS-MEC) (HepaRG spheroids [8]): +VE (key: +VE: MEC < 25 × Cmax.tot cut-off)
- HepaRG <10 uM All (HepaRG spheroids [8]): -ve
- HepaRG <100x Avg Cmaxu ATP (HepaRG spheroids [8]; human): +ve (key: +ve: <100x Avg Cmaxu)
- HepaRG <100x Avg Cmaxu All (HepaRG spheroids [8]; human): +ve (key: +ve: <100x Avg Cmaxu)
- HepaRG <100x Avg Cmaxu HCS (HepaRG spheroids [8]; human): +ve (key: +ve: <100x Avg Cmaxu)
- HepaRG Cmax max All (HepaRG spheroids [8]; human): +ve
- HepaRG Cmax min All (HepaRG spheroids [8]; human): -ve
- Human plasma Cmax,u [9]: 114.400 µM
- hLiMTs ATP <100uM (hLiMTs [10]): -VE
- hLiMTs/100uM, Proctor (2017) (hLiMTs [10]): -VE
- DILI in vitro assay prediction, O'Brien (2006) (HepG2 cells [2]): +VE (key: +VE: lowest HCI endpoint IC50 (or in the absence of dose–response < 100 µM) < 30 × total human plasma exposure levels (Cmax.tot))
- Structural based (HCI) (HepG2 cells [2]): +VE
- DILI prediction hLiMTs (HCS-MEC) (hLiMTs [11]): +VE (key: +VE: MEC < 25 × Cmax.tot cut-off)
- hLiMTs <10 uM All (hLiMTs [11]): -ve
- hLiMTs <100x Avg Cmaxu ATP (hLiMTs [11]; human): +ve (key: +ve: <100x Avg Cmaxu)
- hLiMTs <100x Avg Cmaxu All (hLiMTs [11]; human): +ve (key: +ve: <100x Avg Cmaxu)
- hLiMTs <100x Avg Cmaxu HCS (hLiMTs [11]; human): +ve (key: +ve: <100x Avg Cmaxu)
- hLiMTs Cmax max All (hLiMTs [11]; human): +ve
- hLiMTs Cmax min All (hLiMTs [11]; human): -ve
- DILI Score (FDA) (1-8) [12]: 5
- HMPCC's (hu-MPCC): +VE
- PHH ATP <100uM (PHH [13]): -VE
- PHH/100uM, Proctor (2017) (PHH [13]): -VE
- RMPCC's (RMPCC's): +VE
- Cellular toxicity (3T3 cells) [14]: -VE
- DILI in vitro assay prediction, Schadt (2015) [14]: -VE
- GSH adduct HML [14]: -VE
- Hepatocyte cellular toxicity [14]: -VE
- MitoTox 3T3 [14]: -VE
- TDI CYP3A4 [14]: -VE
- hBSEP inhibition [14]: -VE
- AC50 (hLiMTs [15]; read-out: ATP endpoint AC50): 906 µM
- minimal effective concentration (hLiMTs [15]; read-out: ATP endpoint MEC): 613 µM
- AC50 (hLiMTs [15]; read-out: HCS endpoint AC50): 992 µM
- minimal effective concentration (hLiMTs [15]; read-out: HCS endpoint MEC): 236 µM
- Partition Hybrid HRM Score [4]: -VE
- Partition Hybrid HRM Score ≥4, Aleo (2019) [4]: -VE
- Partition Hybrid HRM Score ≥8, Aleo (2019) [4]: -VE
- Ro2 Hybrid HRM Score [4]: -VE
- Rule of Two hybrid HRM Score ≥3, Aleo (2019) [4]: -VE
- Rule of Two hybrid HRM Score ≥8, Aleo (2019) [4]: -VE
- DILI in vitro assay prediction, Tolosa (2012) (HepG2 cells [5]): -VE
- Structural based (HCI) (HepG2 cells [5]): +VE
- AC50 (HepaRG spheroids [16]; read-out: ATP endpoint AC50): 419 µM
- minimal effective concentration (HepaRG spheroids [16]; read-out: ATP endpoint MEC): 229 µM
- AC50 (HepaRG spheroids [16]; read-out: HCS endpoint AC50): 1860 µM
- minimal effective concentration (HepaRG spheroids [16]; read-out: HCS endpoint MEC): 340 µM
- DILI +VE (5-8), DILI -VE (-4) ([6]; in vivo): +VE
- DILI severity category (Chen et al. [2016]) ([6]; in vivo): Less

SMILES: CN(C)CCCN1c2ccccc2CCc2ccccc21 [imipramine]
- In vivo DILI ([1]; […]): +VE
- In vivo DILI ([1]; ref Aleo 2019): +VE
- In vivo DILI ([1]; ref Garside 2014): +VE
- In vivo DILI ([1]; ref Khetani 2012): +VE
- In vivo DILI ([1]; ref O'Brien 2006): +VE
- In vivo DILI ([1]; ref Persson 2013): +VE
- In vivo DILI ([1]; ref Porceddu 2012): +VE
- In vivo DILI ([1]; ref Proctor 2017): +VE
- In vivo DILI ([1]; ref Schadt 2015): -VE
- In vivo DILI ([1]; ref Tolosa 2012): +VE
- In vivo DILI ([1]; ref Vorrink 2018): +VE
- In vivo DILI ([1]; ref Williams 2019): +VE
- In vivo DILI ([1]; ref Xu 2008): +VE
- hLiMTs ATP <100uM (hLiMTs [10]; [20]): +VE (IC50 threshold of 100 µM)
- Structural based (HCI) (HepG2 cells [2]; [21]): +VE
- HMPCC's (hu-MPCC; [22]): +VE
- PHH ATP <100uM (PHH [13]; [20]): +VE (IC50 threshold of 100 µM)
- in vitro data EC2<=1x Cmax [17]: -VE
- in vitro data EC20<=2uM [17]: +VE
- Bayesian Machine Learning ([3]; In vitro Assay, ref Williams 2019): +VE
- RMPCC's (RMPCC's; [22]): -VE
- Structural based (HCI) (HepG2 cells [18]): +VE
- Ro2 Hybrid HRM Score ([4]; In vitro Assay, ref Aleo 2019): +VE
- hLiMTs ATP <20 x Cmax (PHH spheroids): +VE (IC20 < 20 × Cmax.tot cut-off)
- Structural based (HCI) (HepG2 cells [5]; In vitro Assay, ref Tolosa 2012): +VE
- DILI +VE (5-8), DILI -VE (-4) ([6]; ref Chen 2016): +VE
- DILI severity category ([6]; ref Chen 2016): vLess-DILI-Concern

SMILES: CCCCC1C(=O)N(c2ccccc2)N(c2ccccc2)C1=O [phenylbutazone]
- In vivo DILI ([1]; in vivo): +VE
- Structural based (HCI) (HepG2 cells [2]; [21]): +VE
- HMPCC's (hu-MPCC; [22]): +VE
- in vitro data EC2<=1x Cmax [17]: +VE
- RMPCC's (RMPCC's; [22]): +VE
- Cytotoxicity HepG2 48 hrs (HepG2): +VE
- Cytotoxicity PHH 48 hrs (PHH [19]): +VE
